According to US12569474B2, “Compositions and methods for treating anemia” (Akebia Therapeutics, Inc., priority 2013, dated 2026):
“Also recorded” adds a separate entry of the source.

What was measured:
healthy male adults [1] = test: Phase 1a single ascending dose (SAD) study, EPO response; type: in vivo, human
[2] = system: patients having anemia secondary to CKD; test: Compound 1 at 500 mg in patients having anemia secondary to CKD: EPO levels and half-life over 24 hours; type: in vivo, human
From the text: Current treatment of anemia associated with chronic kidney disease (CKD) with erythropoiesis-stimulating agents (ESAs) can lead to supraphysiological levels of circulating erythropoietin (EPO) that persist for days, a profile that may be associated with increased cardiovascular side effects and thromboembolic events. […] In a randomized double-blind, placebo-controlled Phase 2a trial, 93 patients with CKD stage 3, 4, or 5 (not on dialysis) received placebo or Compound 1 in the following dose groups: 240, 370, 500, or 630 mg once daily for 6 weeks. […]

healthy male adults [3] = test: Phase 1b multiple ascending dose (MAD) study, EPO response; type: in vivo, human
healthy adult males = test: Phase I clinical trials in healthy adult males (overall); type: in vivo, human
From the text: This was a surprising result for a number of reasons. […] Thus, particularly with regard to patients having a disease or condition associated with kidney impairment, a person of skill in the art would not expect that administration of a compound provided herein could cause an increase in a patient's serum hemoglobin levels while also mimicking the diurnal variation of serum EPO levels in healthy individuals and without raising the patients' baseline serum EPO levels.

[4] = Clinical data obtained to date (summary over studies); type: in vivo, human
From the text: Furthermore, this is achieved with a modest increase in the daily peak level of EPO, but with no increase in basal (pre-dose) levels (in a manner that mimics the physiologic diurnal response in healthy individuals).

[5] = system: patients with Stage 3 or 4 CKD; test: Phase 2a dose escalation study, 28 days; type: in vivo, human
Experimental: In a Phase 2a dose escalation study, 10 CKD patients received Compound 1 once daily for 28 days. Dosing began at 400 mg in CKD Stage 3 patients and 300 mg in CKD Stage 4 patients.

[6] = system: patients with CKD stage 3, 4, or 5 (not on dialysis); test: Randomized double-blind, placebo-controlled Phase 2a trial, 6 weeks; type: in vivo, human
From the text: Current treatment of anemia associated with chronic kidney disease (CKD) with erythropoiesis-stimulating agents (ESAs) can lead to supraphysiological levels of circulating erythropoietin (EPO) that persist for days, a profile that may be associated with increased cardiovascular side effects and thromboembolic events. […] In a randomized double-blind, placebo-controlled Phase 2a trial, 93 patients with CKD stage 3, 4, or 5 (not on dialysis) received placebo or Compound 1 in the following dose groups: 240, 370, 500, or 630 mg once daily for 6 weeks. […] Erythropoietin was measured at baseline, week 2, end of treatment and follow up.
In a randomized double-blind, placebo-controlled Phase 2a clinical trial, 93 patients with CKD stage 3, 4, or 5 (not on dialysis) received placebo or Compound 1 in the following dose groups: 240, 370, 500, or 630 mg once daily for 6 weeks. […] TIBC and serum iron levels were measured at baseline, week 2, week 4, end of treatment (week 6) and follow up.
In a randomized double-blind, placebo-controlled Phase 2a trial, 93 patients with CKD stage 3, 4, or 5 (not on dialysis) received placebo or Compound 1 in the following dose groups: 240, 370, 500, or 630 mg once daily for 6 weeks.

HIF prolyl hydroxylase = test: In Vitro HIF Prolyl Hydroxylase Inhibition Assay (HRE luciferase reporter); type: cell-based, human
Experimental: (§1) Materials and Methods: Cell Culture: Human hepatocellular carcinoma (Hep3B) cells were obtained from the American Type Culture Collection (ATCC, Mannassas, VA) and cultured according to ATCC recommendations. Cells were cultured at 37° C. in an atmosphere of 95% air and 5% C02 in a humidified incubator. Compound 13 was diluted to a stock concentration of 50 mM in DMSO (Sigma).
(§2) Cell Treatments: Hep3B cells were plated on 24 well plates. Subsets of Hep3B cultures were transfected with a HIF reporter plasmid (pHRE-luciferase) overnight. (See Sheta, et al., Oncogene. 2001 Nov. 15; 20(52):7624-34.) Cells were exposed to vehicle (1:1000 DMSO) or test Compound 13 at 50 m for 18 hours at 37° C. in an atmosphere of 95% air and 5% CO2 in a humidified incubator.
(§3) Analysis: After 48-hour culture, cell supernatants were subsequently collected, centrifuged at 15,000×g for 15 minutes at 4° C. to sediment debris.
In Vitro HIF Prolyl Hydroxylase Inhibition Assay: Cell lysates were assayed using the dual luciferase reporter-assay (Promega, Madison, WI, USA). Observed firefly luciferase activity was normalized to a co-transfected Renilla luciferase.
(§4) Compound 13 was assayed in duplicate. Fold change over the vehicle control was calculated. Compound 13 was tested at a concentration of 50 m. […] Resulting values for the In Vitro EPO Induction Assay, and In Vitro HIF Prolyl Hydroxylase Inhibition Assay are shown in Table 1 and Table 2.

[7] = system: EPO production in Hep3B cells; test: In Vitro EPO Induction Assay (secreted EPO immunoassay); type: cell-based, human
Experimental: as §1, §2, §3
In Vitro EPO Induction Assay: Secreted EPO levels were assayed by specific immunoassay (MesoScale Discovery, Gaithersburg, MD) in accordance with manufacturer's instructions.
as §4

[8] = 240, 370, 500, or 630 mg once daily for 6 weeks, all dose groups, ANOVA p<0.0001

Question: Which results are given for `O=C(O)CNC(=O)c1ncc(-c2cccc(Cl)c2)cc1O` [Compound 1, {[5-(3-chlorophenyl)-3-hydroxypyridine-2-carbonyl]amino}acetic acid]?
Answer: EPO increase compared to placebo (healthy male adults [1]; 600 mg cohort, 8 hours, p=0.034): significant increase; EPO rise compared to placebo (healthy male adults [1]; 900 and 1200 mg groups, 8, 12, 18, and 24 hours following dosing, p<0.01): significant, dose-dependent rises; Half-life in patients with anemia secondary to CKD compared to healthy individuals ([2]; CKD patients vs healthy adult males): approximately twice as long; also recorded: significantly longer; Time to return to baseline EPO levels ([2]; dose of 500 mg, patients having anemia secondary to CKD): ≤ 24 h; Peak EPO concentration (healthy male adults [3]; multiple ascending dose): dose responsive increase; EPO concentration prior to the next morning dose (healthy male adults [3]; regardless of the dosing group): essentially returned to baseline; Rise in EPO relative to dose (healthy adult males; Phase 1 studies): proportionate to the dose; Serum EPO levels after administration (healthy adult males; healthy adult males): returned to approximately baseline levels within twenty-four hours; Serum hemoglobin levels (healthy adult males; healthy adult males): able to increase serum hemoglobin levels; Hepcidin and ferritin ([4]; dose responsive changes): decreases in hepcidin and ferritin; Total iron binding capacity ([4]; dose responsive changes): increase in total iron binding capacity; Baseline EPO ([4]; human, in vivo): without increasing baseline EPO; EPO levels (daily) ([4]; similar to the physiologic diurnal response): modest dose-proportional daily increases in EPO levels; Hemoglobin by Day 29 ([5]; 10 CKD Stage 3 and 4 patients, once daily 28 days, start 400 mg (Stage 3) or 300 mg (Stage 4), +100 mg steps, baseline 9.91 g/dL): 10.54 g/dL; Ferritin by Day 29 ([5]; 10 CKD Stage 3 and 4 patients, once daily 28 days, baseline 334.10 ng/mL): 271.70 ng/mL; Tolerability ([5]; patients with Stage 3 or 4 CKD, 28 days): well-tolerated; HGB (hemoglobin) at Week 6 compared to baseline and to placebo [6, 8]: able to increase serum hemoglobin levels; also recorded: significantly increased HGB; also recorded: significantly increased hemoglobin levels; TIBC at Week 6 compared to baseline and to placebo [6, 8]: able to increase TIBC levels; also recorded: significantly increased TIBC; TIBC dose relation at Week 6 ([6]; 240-630 mg once daily): dose-related increase in TIBC; also recorded: dose-related increase in total iron binding capacity; Serum iron levels relative to baseline ([6]; Week 6): not associated with an increase in serum iron levels; also recorded: without increasing serum iron levels; TSAT at Week 6 ([6]; Week 6): decrease in TSAT; Hepcidin expression at low doses ([6]; low doses, such as the 240 mg group, Week 6): not accompanied by a decrease in hepcidin expression; Serum levels of EPO over time ([6]; measured at baseline, week 2, end of treatment and follow up): did not increase significantly over time; Daily EPO levels in CKD patients ([6]; mimicking the physiologic diurnal response): moderate daily increases in EPO levels; Basal (pre-dose) EPO levels ([6]; prior to daily dose, 6 weeks): without increasing basal (pre-dose) EPO levels; HGB dose response ([6]; starting from the lowest dose (240 mg)): clear dose-responsive increase in HGB

Question: Which “Mean HIF PH Inhibition Activity (Relative Luciferase)” value (HIF prolyl hydroxylase; Hep3B cells transfected with pHRE-luciferase, Compound 13 at 50 µM, firefly normalized to Renilla, vehicle 1) does the source give for `NCCNC(=O)c1ncccc1O` [Compound 13, N-(2-aminoethyl)-3-hydroxy-pyridine-2-carboxamide] here?
Answer: Its value is 3.6.

Question: And the “HIF prolyl hydroxylase enzyme activity (result in words)” value (HIF prolyl hydroxylase; Hep3B cells, 50 µM, vs DMSO vehicle)?
Answer: Its value is “inhibit HIF prolyl hydroxylase enzyme activity”.

Question: What about the “Fold Change (HIF PH inhibition activity, over vehicle control)” value (HIF prolyl hydroxylase; Hep3B cells, Compound 13 at 50 µM, inactive if ≤1.0 fold over control) of the same compound?
Answer: Its value is 3.6.

Question: What about the “Mean [EPO]” value ([7]; Compound 13, 18 hours, assayed in duplicate, vehicle 3.0736) of the same compound?
Answer: Its value is 8.9137 mIU/mL.

Question: What about the “Fold Change (EPO, over vehicle control)” value ([7]; Compound 13, inactive if ≤1.0 fold over control) of the same compound?
Answer: Its value is 2.9001.

Question: What about the “EPO production (result in words)” value ([7]; vs DMSO vehicle) of the same compound?
Answer: The value was “increase EPO production”.
